Measurements from ChEMBL document CHEMBL1201862, “PubChem BioAssay data set” (2004).
Activity calls are given as the source filed them.

Assays:
[1] = C. albicans growth with fluconazole, confirmation, fluorescence, retest (AID 2467); assay type: functional, cell-based
[2] = Luminescence Cell-Based Dose Response to Identify Activators of Luciferase Translation or Activity in H4-C Neuroglioblastoma Cells. [Related pubchem assays: 1829 (Project Summary), 1814 (Primary HTS)]; assay type: functional
[3] = system: Vero; assay: Vero cell cytotoxicity, cytotoxicity control for flavivirus capping enzyme inhibitors (AID 588742); assay type: functional; conditions: Chlorocebus sabaeus
[4] = system: H4; assay: Luminescence Cell-Based Dose Response HTS to Identify Activators of 5'UTR Stem-Loop Driven Prion Protein mRNA Translation in H4 Neuroglioblastoma Cells. [Related pubchem assays: 1829 (Project Summary), 1814 (Primary HTS)]; assay type: functional; conditions: Homo sapiens
[5] = Luminescence Cell-Based Dose Response HTS to Identify Activators of Luciferase Translation or Activity in H4 […] Cells. [Related pubchem assays: 1829 (Project Summary), 1814 (Primary HTS)]; assay type: functional
[6] = Luminescence Cell-Based Dose Confirmation to Identify Activators of 5'UTR Stem-Loop Driven Alpha-Synuclein mRNA Translation in H4 Neuroglioblastoma Cells. [Related pubchem assays: 1829 (Project Summary), 1814 (Primary HTS)]; assay type: functional
[7] = Luminescence Cell-Based Dose Response to Identify Activators of 5'UTR Stem-Loop Driven Prion Protein mRNA Translation in H4-C Neuroglioblastoma Cells. [Related pubchem assays: 1829 (Project Summary), 1814 (Primary HTS)]; assay type: functional
[8] = NIH-3T3 fibroblast cytotoxicity, dose response, cytotoxicity control, cell-based, fluorescence, Alamar Blue, secondary assay (AID 2327); assay type: functional;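 further: NIH-3T3 mouse fibroblasts cultured with fluconazole at 8 µg/mL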
[9] = target: Peroxisome proliferator-activated receptor gamma/Nuclear receptor coactivator 1 (Homo sapiens, UniProt P37231); assay: (§1) TR-FRET dose response biochemical High Throughput Screening assay for agonists of the steroid receptor coactivator 1 (SRC-1) recruitment by the peroxisome proliferator-activated receptor gamma (PPAR gamma): non-selective agonists. [Related pubchem assays (depositor defined):AID1300, AID1808, AID504735, AID631]; assay type: protein assay
Chain of Peroxisome proliferator-activated receptor gamma/Nuclear receptor coactivator 1 (P37231 whole entry): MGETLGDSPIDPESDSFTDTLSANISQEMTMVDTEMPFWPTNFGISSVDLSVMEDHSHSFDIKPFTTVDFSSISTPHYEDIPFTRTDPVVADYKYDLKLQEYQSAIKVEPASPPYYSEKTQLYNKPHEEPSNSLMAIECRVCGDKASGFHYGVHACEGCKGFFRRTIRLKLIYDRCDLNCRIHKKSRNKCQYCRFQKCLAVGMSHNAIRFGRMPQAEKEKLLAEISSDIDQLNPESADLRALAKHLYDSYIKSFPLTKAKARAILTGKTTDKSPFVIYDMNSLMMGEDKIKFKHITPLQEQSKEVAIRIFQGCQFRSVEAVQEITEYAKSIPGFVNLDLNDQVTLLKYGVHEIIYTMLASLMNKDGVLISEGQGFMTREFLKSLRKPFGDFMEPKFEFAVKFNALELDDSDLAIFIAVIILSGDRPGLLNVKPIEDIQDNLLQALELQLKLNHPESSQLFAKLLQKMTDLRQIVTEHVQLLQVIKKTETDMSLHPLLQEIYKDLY
Chain of Peroxisome proliferator-activated receptor gamma/Nuclear receptor coactivator 1 (Q15788 whole entry, further chain): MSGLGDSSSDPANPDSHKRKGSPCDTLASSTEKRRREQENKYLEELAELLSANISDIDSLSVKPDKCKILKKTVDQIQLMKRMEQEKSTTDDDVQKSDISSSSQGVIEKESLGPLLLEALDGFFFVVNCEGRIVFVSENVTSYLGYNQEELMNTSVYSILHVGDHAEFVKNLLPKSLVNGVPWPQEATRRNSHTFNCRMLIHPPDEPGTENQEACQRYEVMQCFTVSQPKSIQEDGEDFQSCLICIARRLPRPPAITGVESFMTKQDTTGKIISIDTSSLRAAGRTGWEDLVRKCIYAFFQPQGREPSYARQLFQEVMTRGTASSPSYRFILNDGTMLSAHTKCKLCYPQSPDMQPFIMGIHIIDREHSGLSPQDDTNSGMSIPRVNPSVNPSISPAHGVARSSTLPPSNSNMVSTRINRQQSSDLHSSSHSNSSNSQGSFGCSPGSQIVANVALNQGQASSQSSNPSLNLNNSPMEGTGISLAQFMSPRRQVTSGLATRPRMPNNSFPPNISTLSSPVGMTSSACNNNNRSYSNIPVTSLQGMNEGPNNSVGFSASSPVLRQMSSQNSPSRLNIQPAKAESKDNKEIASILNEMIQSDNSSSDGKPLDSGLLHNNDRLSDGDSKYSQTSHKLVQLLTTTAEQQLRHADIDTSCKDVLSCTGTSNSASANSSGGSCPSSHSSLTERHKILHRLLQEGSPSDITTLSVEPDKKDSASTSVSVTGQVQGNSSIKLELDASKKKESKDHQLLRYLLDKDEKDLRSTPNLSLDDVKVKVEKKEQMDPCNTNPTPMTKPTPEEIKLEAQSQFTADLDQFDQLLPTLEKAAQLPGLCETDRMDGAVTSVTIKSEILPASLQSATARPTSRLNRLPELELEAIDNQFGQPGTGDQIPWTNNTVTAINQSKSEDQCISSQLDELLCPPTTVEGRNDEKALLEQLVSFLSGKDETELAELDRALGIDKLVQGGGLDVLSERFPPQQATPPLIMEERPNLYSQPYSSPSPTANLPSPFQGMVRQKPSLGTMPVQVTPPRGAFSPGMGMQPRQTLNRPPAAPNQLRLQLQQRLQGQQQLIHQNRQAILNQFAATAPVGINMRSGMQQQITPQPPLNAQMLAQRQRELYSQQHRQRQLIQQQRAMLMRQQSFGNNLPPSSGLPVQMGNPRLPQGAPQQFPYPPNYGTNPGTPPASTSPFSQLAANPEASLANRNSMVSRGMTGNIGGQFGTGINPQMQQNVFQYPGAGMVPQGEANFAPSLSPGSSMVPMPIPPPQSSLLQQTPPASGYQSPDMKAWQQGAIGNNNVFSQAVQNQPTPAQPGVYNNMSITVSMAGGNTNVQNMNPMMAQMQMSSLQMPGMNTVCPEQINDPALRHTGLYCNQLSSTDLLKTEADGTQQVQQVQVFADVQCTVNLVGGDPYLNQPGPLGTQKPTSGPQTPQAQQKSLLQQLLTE

[10] = target: Keap1/Nrf2 (Homo sapiens, UniProt Q14145); assay: Keap1-Nrf2 protein-protein interaction inhibitors, dose response, biochemical, fluorescence polarization, cherry-picked samples (AID 588683)
[11] = target: T1, Zinc finger protein mex-5 (Caenorhabditis elegans, UniProt Q9XUB2); assay: MEX-5/TCR-2 RNA interaction inhibitors, dose response, biochemical, C. elegans, fluorescence polarization (AID 1960)
T1 sequence (Q9XUB2 whole entry): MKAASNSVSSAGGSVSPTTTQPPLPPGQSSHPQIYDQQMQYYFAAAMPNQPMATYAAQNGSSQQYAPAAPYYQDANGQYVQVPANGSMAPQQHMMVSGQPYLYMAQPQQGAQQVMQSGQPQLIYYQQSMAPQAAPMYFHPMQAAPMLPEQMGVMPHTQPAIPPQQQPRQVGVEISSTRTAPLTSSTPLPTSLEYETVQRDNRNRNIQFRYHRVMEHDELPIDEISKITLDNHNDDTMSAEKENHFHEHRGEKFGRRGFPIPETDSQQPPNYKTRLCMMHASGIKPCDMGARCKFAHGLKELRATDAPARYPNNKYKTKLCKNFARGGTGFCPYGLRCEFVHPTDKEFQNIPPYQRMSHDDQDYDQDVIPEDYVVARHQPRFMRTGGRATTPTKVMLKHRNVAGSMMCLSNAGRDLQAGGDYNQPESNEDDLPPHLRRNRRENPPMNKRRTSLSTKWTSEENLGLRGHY

[12] = target: UDP-galactopyranose mutase (Mycobacterium tuberculosis, UniProt P9WIQ1); assay: Inhibitors of Mycobacterium tuberculosis UDP-galactopyranose mutase (UGM) enzyme Measured in Biochemical System Using Plate Reader - 2105-02_Inhibitor_Dose_CherryPick_Activity. [Related pubchem assays (depositor defined):AID504439]
Chain of UDP-galactopyranose mutase (P9WIQ1 whole entry): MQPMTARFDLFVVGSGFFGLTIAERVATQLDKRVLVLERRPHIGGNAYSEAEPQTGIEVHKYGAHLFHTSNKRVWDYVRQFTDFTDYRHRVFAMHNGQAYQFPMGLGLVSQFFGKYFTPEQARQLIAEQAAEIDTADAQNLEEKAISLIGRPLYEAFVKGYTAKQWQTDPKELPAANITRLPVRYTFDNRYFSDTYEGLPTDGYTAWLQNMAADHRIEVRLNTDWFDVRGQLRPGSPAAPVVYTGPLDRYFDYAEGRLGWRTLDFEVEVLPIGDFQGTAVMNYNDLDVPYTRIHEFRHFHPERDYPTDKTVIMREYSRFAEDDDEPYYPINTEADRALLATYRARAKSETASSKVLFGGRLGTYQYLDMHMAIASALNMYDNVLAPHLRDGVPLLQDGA

[13] = target: Peroxisome proliferator-activated receptor gamma/Nuclear receptor coactivator 3 (Homo sapiens, UniProt P37231); assay: as §1, with “3 (SRC-3)” for “1 (SRC-1)”, “assays: 1301 (Confirmation screen.), 1048 (Primary screen.)]” for “assays (depositor defined):AID1300, AID1808, AID504735, AID631]”; assay type: functional
Chain of Peroxisome proliferator-activated receptor gamma/Nuclear receptor coactivator 3 (P37231 whole entry): as the sequence (P37231 whole entry) above
Chain of Peroxisome proliferator-activated receptor gamma/Nuclear receptor coactivator 3 (Q9Y6Q9 whole entry, further chain): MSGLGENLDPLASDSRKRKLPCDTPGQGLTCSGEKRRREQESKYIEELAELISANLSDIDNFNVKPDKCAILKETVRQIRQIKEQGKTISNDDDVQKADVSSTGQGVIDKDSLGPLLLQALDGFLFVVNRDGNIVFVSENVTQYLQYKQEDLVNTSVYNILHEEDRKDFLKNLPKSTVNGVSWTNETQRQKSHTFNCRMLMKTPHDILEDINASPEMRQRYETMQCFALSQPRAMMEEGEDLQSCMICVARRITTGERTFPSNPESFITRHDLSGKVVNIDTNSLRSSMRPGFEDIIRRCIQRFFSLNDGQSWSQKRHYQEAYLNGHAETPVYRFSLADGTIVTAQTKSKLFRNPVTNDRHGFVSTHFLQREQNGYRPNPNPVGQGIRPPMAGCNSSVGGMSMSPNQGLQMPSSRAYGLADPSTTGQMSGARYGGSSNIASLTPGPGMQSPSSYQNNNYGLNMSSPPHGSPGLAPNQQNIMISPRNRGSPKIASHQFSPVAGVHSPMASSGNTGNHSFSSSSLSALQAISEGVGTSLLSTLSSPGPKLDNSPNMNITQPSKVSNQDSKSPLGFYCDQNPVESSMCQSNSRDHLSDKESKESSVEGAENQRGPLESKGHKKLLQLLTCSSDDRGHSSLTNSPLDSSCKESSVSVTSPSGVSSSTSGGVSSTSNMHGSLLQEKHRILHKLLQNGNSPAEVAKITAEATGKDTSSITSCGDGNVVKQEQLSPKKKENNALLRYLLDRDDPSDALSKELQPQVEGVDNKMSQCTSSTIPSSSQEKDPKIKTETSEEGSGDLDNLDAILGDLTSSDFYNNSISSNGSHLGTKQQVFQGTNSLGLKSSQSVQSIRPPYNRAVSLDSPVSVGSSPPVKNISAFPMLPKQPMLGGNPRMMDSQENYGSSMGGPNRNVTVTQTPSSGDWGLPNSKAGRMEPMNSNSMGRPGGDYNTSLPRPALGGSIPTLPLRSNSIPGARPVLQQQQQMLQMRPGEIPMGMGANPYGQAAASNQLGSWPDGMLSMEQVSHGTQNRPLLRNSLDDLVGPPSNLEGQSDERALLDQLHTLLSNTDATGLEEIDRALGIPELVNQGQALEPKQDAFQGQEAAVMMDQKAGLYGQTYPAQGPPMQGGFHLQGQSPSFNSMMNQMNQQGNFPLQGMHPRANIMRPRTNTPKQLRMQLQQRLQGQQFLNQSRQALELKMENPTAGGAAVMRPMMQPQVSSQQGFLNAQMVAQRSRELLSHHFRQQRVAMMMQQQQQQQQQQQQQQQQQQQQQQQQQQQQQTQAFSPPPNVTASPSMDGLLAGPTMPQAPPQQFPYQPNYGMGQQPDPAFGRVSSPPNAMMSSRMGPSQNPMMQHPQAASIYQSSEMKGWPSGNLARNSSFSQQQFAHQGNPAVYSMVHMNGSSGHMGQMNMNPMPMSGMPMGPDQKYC

[14] = target: Peroxisome proliferator-activated receptor gamma/Nuclear receptor coactivator 2 (Homo sapiens, UniProt P37231); assay: TR-FRET dose response biochemical High Throughput Screening assay for agonists of the steroid receptor coactivator 2 (SRC-2) recruitment by the peroxisome proliferator-activated receptor gamma (PPAR gamma): non-selective agonists. [Related pubchem assays: 1297, 1032 ]; assay type: functional
[15] = target: 14-3-3 protein gamma (Homo sapiens, UniProt P61981); assay: modulators of 14-3-3 gamma client binding – dose response (AID 711); assay type: functional
Chain of 14-3-3 protein gamma (P61981 whole entry, the tested form may be a part): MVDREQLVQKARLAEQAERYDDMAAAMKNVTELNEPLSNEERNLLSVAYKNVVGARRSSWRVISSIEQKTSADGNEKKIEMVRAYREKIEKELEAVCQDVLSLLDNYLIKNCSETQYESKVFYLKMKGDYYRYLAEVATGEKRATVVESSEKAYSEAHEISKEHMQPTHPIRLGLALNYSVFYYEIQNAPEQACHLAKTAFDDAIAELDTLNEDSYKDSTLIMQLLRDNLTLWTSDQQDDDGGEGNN

[16] = target: T2, RNA-binding protein pos-1 (Caenorhabditis elegans, UniProt G5EF15); assay: inhibitors of POS-1/mex-3 RNA binding, dose response, biochemical, fluorescence polarization (AID 1964);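 further: purified POS-1 fused to maltose binding protein made in E. coli; potency of compounds blocking POS-1 binding to fluorescent RNA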
T2 sequence (G5EF15 whole entry): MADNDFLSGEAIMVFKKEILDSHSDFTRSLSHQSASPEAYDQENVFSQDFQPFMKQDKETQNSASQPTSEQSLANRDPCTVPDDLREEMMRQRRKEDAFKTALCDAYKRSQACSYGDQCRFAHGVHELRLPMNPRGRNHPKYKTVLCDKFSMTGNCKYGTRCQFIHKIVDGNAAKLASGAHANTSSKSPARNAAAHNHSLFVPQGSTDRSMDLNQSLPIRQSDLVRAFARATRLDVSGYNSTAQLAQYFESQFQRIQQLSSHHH

[17] = target: T3, ORF 73 (Human herpesvirus 8, UniProt O40947); assay: inhibitors of C-LANA binding to LBS DNA, dose response, biochemical, fluorescence polarization, cherry-picked samples (AID 504725); set-up: species or system Human gammaherpesvirus 8;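 further: fluorescence polarization of a labeled DNA duplex reporting LANA DNA binding; potency is for inhibitors that block LANA binding to the DNA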
T3 sequence (O40947 whole entry): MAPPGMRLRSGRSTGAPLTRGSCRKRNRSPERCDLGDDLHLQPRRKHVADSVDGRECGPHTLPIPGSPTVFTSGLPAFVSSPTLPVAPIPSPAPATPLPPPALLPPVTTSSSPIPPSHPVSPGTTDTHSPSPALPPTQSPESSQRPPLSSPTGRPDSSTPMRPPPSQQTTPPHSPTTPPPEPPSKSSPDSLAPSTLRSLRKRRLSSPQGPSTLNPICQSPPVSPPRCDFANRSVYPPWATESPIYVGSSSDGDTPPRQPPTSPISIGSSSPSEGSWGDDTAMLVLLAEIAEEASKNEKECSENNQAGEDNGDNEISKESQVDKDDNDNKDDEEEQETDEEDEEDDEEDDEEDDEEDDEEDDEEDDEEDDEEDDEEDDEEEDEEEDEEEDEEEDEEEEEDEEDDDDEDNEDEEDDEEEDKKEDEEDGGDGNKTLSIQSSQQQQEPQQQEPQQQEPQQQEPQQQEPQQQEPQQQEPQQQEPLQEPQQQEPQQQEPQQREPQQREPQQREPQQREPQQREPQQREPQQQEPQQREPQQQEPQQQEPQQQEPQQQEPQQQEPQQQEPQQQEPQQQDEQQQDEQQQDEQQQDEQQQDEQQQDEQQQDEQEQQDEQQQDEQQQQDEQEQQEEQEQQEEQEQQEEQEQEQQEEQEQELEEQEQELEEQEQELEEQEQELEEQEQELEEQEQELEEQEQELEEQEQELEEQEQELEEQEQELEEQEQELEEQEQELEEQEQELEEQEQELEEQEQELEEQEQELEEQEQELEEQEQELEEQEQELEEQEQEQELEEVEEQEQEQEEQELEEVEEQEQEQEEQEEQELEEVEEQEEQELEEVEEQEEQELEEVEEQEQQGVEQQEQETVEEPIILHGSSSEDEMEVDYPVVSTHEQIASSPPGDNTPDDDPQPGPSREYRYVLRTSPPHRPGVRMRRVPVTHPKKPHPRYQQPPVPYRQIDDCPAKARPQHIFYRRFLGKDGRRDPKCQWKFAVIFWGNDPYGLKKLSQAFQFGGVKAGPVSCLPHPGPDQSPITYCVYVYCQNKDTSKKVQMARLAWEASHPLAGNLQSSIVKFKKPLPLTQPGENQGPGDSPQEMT

[18] = system: HeLa; assay: HeLa cell cytotoxicity, dose response, cytotoxicity control, 24 h, cherry-picked samples (AID 504726); assay type: functional, cell-based; conditions: Homo sapiens;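 further: potency for cytotoxicity as loss of luminescence signal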
[19] = target: Mitogen-activated protein kinase 10 (Homo sapiens, UniProt P53779); assay: Dose response biochemical screening assay for inhibitors of c-Jun N-Terminal Kinase 3 (JNK3). [Related pubchem assays: 746 ]
Chain of Mitogen-activated protein kinase 10 (P53779 whole entry): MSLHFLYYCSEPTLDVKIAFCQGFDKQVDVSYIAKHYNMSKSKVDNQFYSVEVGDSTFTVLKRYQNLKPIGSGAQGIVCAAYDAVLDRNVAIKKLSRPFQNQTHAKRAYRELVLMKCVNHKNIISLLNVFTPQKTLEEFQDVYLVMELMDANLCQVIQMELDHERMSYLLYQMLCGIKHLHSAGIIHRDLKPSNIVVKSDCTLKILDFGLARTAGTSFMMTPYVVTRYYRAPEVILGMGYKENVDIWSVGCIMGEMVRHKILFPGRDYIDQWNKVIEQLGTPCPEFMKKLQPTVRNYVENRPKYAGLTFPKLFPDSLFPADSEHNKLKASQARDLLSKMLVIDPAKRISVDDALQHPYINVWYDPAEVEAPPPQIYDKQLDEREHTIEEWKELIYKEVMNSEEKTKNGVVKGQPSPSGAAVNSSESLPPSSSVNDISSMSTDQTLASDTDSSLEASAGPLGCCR

[20] = target: T4, Bcl-2-related protein A1 (Mus musculus, UniProt Q07440); assay: Bfl-1 inhibitors blocking BH3 peptide binding, confirmation, biochemical, TR-FRET, mouse Bfl-1 (AID 621);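 further: TR-FRET binding of GST-Bfl-1 to FITC-labelled Bid peptide via terbium antibody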
T4 sequence (Q07440 whole entry): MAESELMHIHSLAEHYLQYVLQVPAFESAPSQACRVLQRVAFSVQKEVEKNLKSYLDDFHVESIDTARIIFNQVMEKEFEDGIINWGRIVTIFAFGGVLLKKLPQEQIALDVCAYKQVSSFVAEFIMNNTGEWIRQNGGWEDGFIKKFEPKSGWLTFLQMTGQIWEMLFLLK

[21] = target: T4, Bcl-2-related protein A1; assay: Bfl-1 binding inhibitors, SAR follow-up, biochemical, fluorescence polarization (AID 1070)
[22] = target: T5, Heat shock factor protein 1 (Mus musculus, UniProt P38532); assay: HSF1 potentiators in luciferase reporter cells, confirmation, cell-based, NIH3T3, luminescence, dose retest (AID 435004); assay type: functional;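 further: stress induced by proteasome inhibitor MG132 added 30 min after compound; luciferase reporter driven by HSF1 response element in NIH3T3 cells; actives raise luminescence as potentiators of the MG132 stress response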
T5 sequence (P38532 whole entry): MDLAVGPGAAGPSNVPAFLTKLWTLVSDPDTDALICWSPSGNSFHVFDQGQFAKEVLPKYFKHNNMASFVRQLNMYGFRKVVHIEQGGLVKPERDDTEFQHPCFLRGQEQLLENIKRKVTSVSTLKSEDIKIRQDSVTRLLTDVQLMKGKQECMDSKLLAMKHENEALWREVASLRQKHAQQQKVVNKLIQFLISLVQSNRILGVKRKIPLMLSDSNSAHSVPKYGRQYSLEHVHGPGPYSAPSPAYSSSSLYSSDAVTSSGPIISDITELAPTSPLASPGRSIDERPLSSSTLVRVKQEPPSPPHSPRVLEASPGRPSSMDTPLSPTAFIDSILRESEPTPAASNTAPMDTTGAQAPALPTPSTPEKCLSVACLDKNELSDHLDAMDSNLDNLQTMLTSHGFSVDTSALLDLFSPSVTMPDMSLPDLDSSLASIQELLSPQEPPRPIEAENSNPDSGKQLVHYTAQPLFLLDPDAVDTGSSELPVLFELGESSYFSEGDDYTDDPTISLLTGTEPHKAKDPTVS

[23] = system: INS1; assay: beta cell apoptosis inhibitors, cytokine rescue, dose response, luminescence, retest (AID 449756); assay type: functional, cell-based; conditions: Rattus norvegicus;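 further: cell death triggered by IL-1 beta plus TNF-alpha plus IFN-gamma mixture; protective hits raise ATP signal compared with cytokine alone wells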
[24] = target: T6, Interleukin-8 (Homo sapiens, UniProt P10145); assay: Dose Response confirmation of uHTS small molecule hits for cystic fibrosis induced NFkb Inhibitors in a TNFa-induced IL8 counterscreen.; assay type: functional; conditions: read-out: IC50_Mean
T6 sequence (P10145 whole entry): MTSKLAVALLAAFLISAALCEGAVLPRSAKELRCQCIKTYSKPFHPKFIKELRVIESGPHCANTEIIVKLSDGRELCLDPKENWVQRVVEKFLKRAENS

[25] = HepG2 cell cytotoxicity, dose response, cytotoxicity control for Shn3 inhibitor project, CellTiter-Glo, cherry-picked (AID 624134); assay type: functional, cell-based
[26] = Shn3 3'UTR reporter inhibitors, dose response, cell-based, Clone20 osteoblasts, firefly luciferase, cherry-picked (AID 624132); assay type: functional;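 further: firefly luciferase luminescence from reporter carrying the Shn3 3'UTR in osteoblasts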
[27] = control 3'UTR Renilla luciferase suppression, dose response, counter-screen for Shn3 inhibitor project, cell-based, Clone20-Shn3RL, cherry-picked (AID 624133); assay type: functional
[28] = system: Vero; assay: host cell cytotoxicity of antiviral hits, dose response, cytotoxicity control for West Nile virus antiviral project, secondary assay (AID 1650); assay type: functional; conditions: Chlorocebus sabaeus
[29] = target: T6, Interleukin-8; assay: Dose Response confirmation of uHTS small molecule hits for cystic fibrosis induced NFkb Inhibitors in a PAF-induced IL8 counterscreen.; assay type: functional; conditions: read-out: IC50_Mean

With O=C(NNC(=O)c1cc2ccccc2cc1O)c1cccs1 the EC50 [1] was > 38 µM (not active), the EC50 [2] was 1.47 µM (active) and the CC50 [3] was > 40 µM (active). The EC50 [4] was > 120 µM (not active), the EC50 [5] was < 0.1 µM (active) and the EC50 [6] was 1.87 µM (active). For the same compound, the EC50 [7] was 9.37 µM (active) and the EC50 [8] was > 150 µM (inactive).

In the case of O=C1c2ccccc2-c2onc3ccc(NCc4ccco4)c1c23, the EC50 [9] is reported as > 79.4 µM (inactive), the AC50 [10] is reported as 1.26 µM (active) and the EC50 [11] is reported as < 0.06 µM (inconclusive). For the same compound, the AC50 [12] was 1.2 µM (active), the EC50 [13] was > 79.4 µM (not active) and the EC50 [14] was 24.3 µM (not active). The IC50 [15] was < 44 µM (inconclusive), the EC50 [16] was 0.173 µM (inconclusive) and the AC50 [17] was 7.42 µM (active). For the same compound, the AC50 [18] was 17.1 µM (active) and the IC50 [19] was 24 µM (not active).

With COc1ccc2nc(O)c(-c3nnn(-c4ccccc4)n3)cc2c1 the IC50 [20] was > 100 µM (not active) and the IC50 [21] was > 100 µM (not active).

For COc1ccc2c(c1OC)C(=O)OC2Nc1nc(-c2ccccc2)cs1 (centres undefined), the EC50 [22] was 13.6 µM (active), the AC50 [23] was 17.6 µM (active) and the IC50 [24] was 39.9 µM (inactive). The AC50 [25] was 58.8 µM (active), the AC50 [26] was 4.7 µM (active) and the AC50 [27] was 17.7 µM (active). For the same compound, the CC50 [28] was 9.86 µM (active) and the IC50 [29] was 0.697 µM (active).
